Test results taken from patent US8987195B2 (priority 2012, dated 2015).
Like-named read-outs stand apart in the source and are kept apart here.

Tests used:
[1] = target: HCV NS3/4A protease genotype 1b (Hepatitis C virus genotype 1b, UniProt P26663); test: HCV NS3/4A protease time-resolved fluorescence (TRF) assay, Ki against genotype 1b; assay type: biochemical; conditions: IC50 [gt-1b] (nM), NS3/4A genotype 1b, enzyme 0.2 nM
Outline: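 Ki values come from IC50 fits corrected for substrate concentration and KM. The time-resolved fluorescence protease reaction used 25 nM peptide substrate, 2.5 h, room temperature, pH 7.5 HEPES buffer, after 30 min enzyme–inhibitor preincubation.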

[2] = tested on: HCV genotype 1b replicon; test: HCV replicon assay, genotype 1b replicon EC50; assay type: cell-based, Hepatitis C virus; conditions: Hepatitis C virus, genotype 1b replicon, read-out: EC50 [gt-1b]
Outline: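 Potency comes from a four-parameter fit of signal as percent of DMSO control. Replicon-bearing cells were treated 24-48 hours with a compound dilution series in absence of G418, and replicon RNA was quantified normalized to cyclophilin A RNA, or luciferase read.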

HCV NS3/4A protease genotype 1b, sequence (P26663 1027-1657): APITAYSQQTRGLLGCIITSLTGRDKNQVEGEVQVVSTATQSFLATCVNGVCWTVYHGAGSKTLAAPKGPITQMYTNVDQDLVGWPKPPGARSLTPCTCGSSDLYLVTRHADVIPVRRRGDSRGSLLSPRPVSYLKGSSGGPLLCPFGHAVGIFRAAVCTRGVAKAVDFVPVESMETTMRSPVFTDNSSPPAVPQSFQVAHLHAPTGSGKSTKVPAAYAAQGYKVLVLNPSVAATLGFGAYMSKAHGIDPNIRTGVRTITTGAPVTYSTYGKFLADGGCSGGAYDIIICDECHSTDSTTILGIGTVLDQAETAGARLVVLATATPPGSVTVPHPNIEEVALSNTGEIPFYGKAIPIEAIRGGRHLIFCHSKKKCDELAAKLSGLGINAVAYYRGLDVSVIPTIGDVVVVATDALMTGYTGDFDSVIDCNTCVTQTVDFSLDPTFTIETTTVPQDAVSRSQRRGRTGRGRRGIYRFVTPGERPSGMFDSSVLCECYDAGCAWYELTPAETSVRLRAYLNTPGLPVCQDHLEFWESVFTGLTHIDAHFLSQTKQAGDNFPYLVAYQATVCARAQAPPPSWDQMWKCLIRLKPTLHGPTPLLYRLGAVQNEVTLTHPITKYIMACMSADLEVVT
HCV NS3/4A protease genotype 1b, sequence (P26663 1658-1711): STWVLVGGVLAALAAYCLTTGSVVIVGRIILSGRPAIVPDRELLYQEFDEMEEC

SMILES	IC50 ([1]; K+ salt)	EC50 ([2]; K+ salt)	IC50 [1]	EC50 [2]	EC50 ([2]; GETYPE1B|GT1B)
COc1ccc2nc(C3CC3)c3c(c2c1)CC[C@]1(C[C@H]2C(=O)N[C@]4(C(=O)NS(=O)(=O)C5(C)CC5)C[C@H]4/C=C\CCCCC[C@H](NC(=O)OCC(C)(C)C)C(=O)N2C1)O3 [Example 153, 2,2-dimethylpropyl [(2R,6S,12Z,13aS,14aR,16aS)-5′-cyclopropyl-9′-methoxy-14a-{[(1-methylcyclopropyl)sulfonyl]carbamoyl}-5,16-dioxo-1,1′,2′,5,6,7,8,9,10,11,13a,14,14a,15,16,16a-hexadecahydrospiro[cyclopropa[e]pyrrolo[1,2-a][1,4]diazacyclopentadecine-2,3′-pyrano[2,3-c]quinolin]-6-yl]carbamate]	0.014 nM	1.86 nM	–	–	–
COc1ccc2nc(C(C)C)c3c(c2c1)CC[C@]1(C[C@H]2C(=O)N[C@]4(C(=O)NS(=O)(=O)C5(C)CC5)C[C@H]4/C=C\CCCCC[C@H](NC(=O)OCC(C)C)C(=O)N2C1)O3 [Example 154, 2-methylpropyl [(2R,6S,12Z,13aS,14aR,16aS)-9′-methoxy-14a-{[(1-methylcyclopropyl)sulfonyl]carbamoyl}-5,16-dioxo-5′-(propan-2-yl)-1,1′,2′,5,6,7,8,9,10,11,13a,14,14a,15,16,16a-hexadecahydrospiro[cyclopropa[e]pyrrolo[1,2-a][1,4]diazacyclopentadecine-2,3′-pyrano[2,3-c]quinolin]-6-yl]carbamate]	–	–	0.014 nM	1 nM	–
COc1ccc2nc(C(C)C)c3c(c2c1)CC[C@]1(C[C@H]2C(=O)N[C@]4(C(=O)NS(=O)(=O)C5(C)CC5)C[C@H]4/C=C\CCCCC[C@H](NC(=O)OC4CCCC4)C(=O)N2C1)O3 [Example 155, cyclopentyl [(2R,6S,12Z,13aS,14aR,16aS)-9′-methoxy-14a-{[(1-methylcyclopropyl)sulfonyl]carbamoyl}-5,16-dioxo-5′-(propan-2-yl)-1,1′,2′,5,6,7,8,9,10,11,13a,14,14a,15,16,16a-hexadecahydrospiro[cyclopropa[e]pyrrolo[1,2-a][1,4]diazacyclopentadecine-2,3′-pyrano[2,3-c]quinolin]-6-yl]carbamate]	–	–	0.015 nM	1.17 nM	–
CC(C)OC(=O)N[C@H]1CCCCC/C=C\[C@@H]2C[C@@]2(C(=O)NS(=O)(=O)C2(C)CC2)NC(=O)[C@@H]2C[C@]3(CCc4c(c(C(F)(F)F)nc5ccccc45)O3)CN2C1=O [Example 157, propan-2-yl [(2R,6S,12Z,13aS,14aR,16aS)-14a-{[(1-methylcyclopropyl)sulfonyl]carbamoyl}-5,16-dioxo-5′-(trifluoromethyl)-1,1′,2′,5,6,7,8,9,10,11,13a,14,14a,15,16,16a-hexadecahydrospiro[cyclopropa[e]pyrrolo[1,2-a][1,4]diazacyclopentadecine-2,3′-pyrano[2,3-c]quinolin]-6-yl]carbamate]	–	–	0.02 nM	1.72 nM	–
CC(C)C1(OC(=O)N[C@H]2CCCCC/C=C\[C@@H]3C[C@@]3(C(=O)NS(=O)(=O)C3(C)CC3)NC(=O)[C@@H]3C[C@]4(CCc5c(c(C(F)(F)F)nc6ccccc56)O4)CN3C2=O)CC1 [Example 158, 1-(propan-2-yl)cyclopropyl [(2R,6S,12Z,13aS,14aR,16aS)-14a-{[(1-methylcyclopropyl)sulfonyl]carbamoyl}-5,16-dioxo-5′-(trifluoromethyl)-1,1′,2′,5,6,7,8,9,10,11,13a,14,14a,15,16,16a-hexadecahydrospiro[cyclopropa[e]pyrrolo[1,2-a][1,4]diazacyclopentadecine-2,3′-pyrano[2,3-c]quinolin]-6-yl]carbamate]	–	–	0.02 nM	1.17 nM	–
CC1(OC(=O)N[C@H]2CCCCC/C=C\[C@@H]3C[C@@]3(C(=O)NS(=O)(=O)C3(C)CC3)NC(=O)[C@@H]3C[C@]4(CCc5c(c(C(F)(F)F)nc6ccccc56)O4)CN3C2=O)CC1 [Example 159, 1-methylcyclopropyl [(2R,6S,12Z,13aS,14aR,16aS)-14a-{[(1-methylcyclopropyl)sulfonyl]carbamoyl}-5,16-dioxo-5′-(trifluoromethyl)-1,1′,2′,5,6,7,8,9,10,11,13a,14,14a,15,16,16a-hexadecahydrospiro[cyclopropa[e]pyrrolo[1,2-a][1,4]diazacyclopentadecine-2,3′-pyrano[2,3-c]quinolin]-6-yl]carbamate]	–	–	0.013 nM	1.19 nM	–
CC(C)COC(=O)N[C@H]1CCCCC/C=C\[C@@H]2C[C@@]2(C(=O)NS(=O)(=O)C2(C)CC2)NC(=O)[C@@H]2C[C@]3(CCc4c(c(C(F)(F)F)nc5ccccc45)O3)CN2C1=O [Example 160, 2-methylpropyl [(2R,6S,12Z,13aS,14aR,16aS)-14a-{[(1-methylcyclopropyl)sulfonyl]carbamoyl}-5,16-dioxo-5′-(trifluoromethyl)-1,1′,2′,5,6,7,8,9,10,11,13a,14,14a,15,16,16a-hexadecahydrospiro[cyclopropa[e]pyrrolo[1,2-a][1,4]diazacyclopentadecine-2,3′-pyrano[2,3-c]quinolin]-6-yl]carbamate]	0.026 nM	1.82 nM	–	–	–
Cc1nc2ccccc2c2c1O[C@]1(CC2)C[C@H]2C(=O)N[C@]3(C(=O)CS(=O)(=O)C4(C)CC4)C[C@H]3/C=C\CCCCC[C@H](NCCC3CCCC3)C(=O)N2C1 [Example 161]	–	–	0.138 nM	–	3.02 nM
Cc1nc2ccccc2c2c1O[C@]1(CC2)C[C@H]2C(=O)N[C@]3(C(=O)NS(=O)(=O)C4(C)CC4)C[C@H]3/C=C\CCCCC[C@H](N(CCC3CCCC3)CCC3CCCC3)C(=O)N2C1 [Example 162, (2R,6S,12Z,13aS,14aR,16aS)-6-[bis(2-cyclopentylethyl)amino]-5′-methyl-N-[(1-methylcyclopropyl)sulfonyl]-5,16-dioxo-1,1′,2′,6,7,8,9,10,11,13a,14,15,16,16a-tetradecahydrospiro[cyclopropa[e]pyrrolo[1,2-a][1,4]diazacyclopentadecine-2,3′-pyrano[2,3-c]quinoline]-14a(5H)-carboxamide]	–	–	6.38 nM	72 nM	–
Cc1nc2ccccc2c2c1O[C@]1(CC2)C[C@H]2C(=O)N[C@]3(C(=O)NS(=O)(=O)C4(C)CC4)C[C@H]3/C=C\CCCCC[C@H](N(CCC(C)(C)C)CCC(C)(C)C)C(=O)N2C1 [Example 163, (2R,6S,12Z,13aS,14aR,16aS)-6-[bis(3,3-dimethylbutyl)amino]-5′-methyl-N-[(1-methylcyclopropyl)sulfonyl]-5,16-dioxo-1,1′,2′,6,7,8,9,10,11,13a,14,15,16,16a-tetradecahydrospiro[cyclopropa[e]pyrrolo[1,2-a][1,4]diazacyclopentadecine-2,3′-pyrano[2,3-c]quinoline]-14a(5H)-carboxamide]	–	–	6.21 nM	> 100 nM	–
Cc1nc2ccccc2c2c1O[C@]1(CC2)C[C@H]2C(=O)N[C@]3(C(=O)NS(=O)(=O)C4(C)CC4)C[C@H]3/C=C\CCCCC[C@H](NCCC(C)(C)C)C(=O)N2C1 [Example 164, (2R,6S,12Z,13aS,14aR,16aS)-6-[(3,3-dimethylbutyl)amino]-5′-methyl-N-[(1-methylcyclopropyl)sulfonyl]-5,16-dioxo-1,1′,2′,6,7,8,9,10,11,13a,14,15,16,16a-tetradecahydrospiro[cyclopropa[e]pyrrolo[1,2-a][1,4]diazacyclopentadecine-2,3′-pyrano[2,3-c]quinoline]-14a(5H)-carboxamide]	–	–	0.132 nM	2.71 nM	–
COc1ccc2nc(C(C)C)c3c(c2c1)CC[C@]1(C[C@H]2C(=O)N[C@]4(C(=O)NS(=O)(=O)C5(C)CC5)C[C@H]4/C=C\CCCCC[C@H](NC(=O)OC4(C)CC4)C(=O)N2C1)O3 [Example 165, 1-methylcyclopropyl [(2R,6S,12Z,13aS,14aR,16aS)-9′-methoxy-14a-{[(1-methylcyclopropyl)sulfonyl]carbamoyl}-5,16-dioxo-5′-(propan-2-yl)-1,1′,2′,5,6,7,8,9,10,11,13a,14,14a,15,16,16a-hexadecahydrospiro[cyclopropa[e]pyrrolo[1,2-a][1,4]diazacyclopentadecine-2,3′-pyrano[2,3-c]quinolin]-6-yl]carbamate]	–	–	0.005 nM	1.39 nM	–
CC1(S(=O)(=O)NC(=O)[C@@]23C[C@H]2/C=C\CCCCC[C@H](NC(=O)OC2CCCCC2)C(=O)N2C[C@@]4(CCc5c(c(C6CC6)nc6c(F)cccc56)O4)C[C@H]2C(=O)N3)CC1 [Example 166, cyclohexyl [(2R,6S,12Z,13aS,14aR,16aS)-5′-cyclopropyl-7′-fluoro-14a-{[(1-methylcyclopropyl)sulfonyl]carbamoyl}-5,16-dioxo-1,1′,2′,5,6,7,8,9,10,11,13a,14,14a,15,16,16a-hexadecahydrospiro[cyclopropa[e]pyrrolo[1,2-a][1,4]diazacyclopentadecine-2,3′-pyrano[2,3-c]quinolin]-6-yl]carbamate]	–	–	0.019 nM	2.4 nM	–
CC(C)C1(OC(=O)N[C@H]2CCCCC/C=C\[C@@H]3C[C@@]3(C(=O)NS(=O)(=O)C3(C)CC3)NC(=O)[C@@H]3C[C@]4(CCc5c(c(C6CC6)nc6c(F)cccc56)O4)CN3C2=O)CC1 [Example 167, 1-(propan-2-yl)cyclopropyl [(2R,6S,12Z,13aS,14aR,16aS)-5′-cyclopropyl-7′-fluoro-14a-{[(1-methylcyclopropyl)sulfonyl]carbamoyl}-5,16-dioxo-1,1′,2′,5,6,7,8,9,10,11,13a,14,14a,15,16,16a-hexadecahydrospiro[cyclopropa[e]pyrrolo[1,2-a][1,4]diazacyclopentadecine-2,3′-pyrano[2,3-c]quinolin]-6-yl]carbamate]	–	–	0.02 nM	1.88 nM	–
